Measured values reported in patent US12221631B2, “Engineered migrasome, method for preparing same, and uses thereof” (priority 2021, dated 2025).

Columns and labels:
[1] = system: Tspan4-GFP-expressing NRK cells; details: sodium chloride in DPBS replaced by chloride of the cation at equal molar concentration; five-step hypotonic stimulation
Experimental: Next, the effect of different cations on the formation of engineered migrasomes was tested.

[2] = system: Tspan4-GFP-expressing NRK cells; experiment: Formation of engineered migrasomes after latrunculin A treatment and step-wise hypotonic stimulation; assay type: cell-based, rat; details: latrunculin A 0.25, 0.5, 1 μM in DPBS 10 min, then three-step hypotonic stimulation; promotion dose-dependent
From the text: The results after step-wise hypotonic treatment were shown in FIG. 2A, and the statistical results of the number of engineered migrasomes produced per cell were shown in FIG. 2B.

| SMILES | ability to promote the formation of engineered migrasomes [1] | number of engineered migrasomes produced per cell [2] |
| --- | --- | --- |
| [Cl-].[Cs+] [cesium ions, cesium chloride] | significantly stronger ability | – |
| C[N+](C)(C)CCO.[Cl-] [choline ions, choline chloride] | significantly stronger ability | – |
| C/C1=C/C(=O)O[C@@H]2C[C@@H](CC[C@H](C)/C=C\C=C\CC1)O[C@@](O)([C@@H]1CSC(=O)N1)C2 [latrunculin A] | – | significantly promote an increase in the number of engineered migrasomes |
| [Cl-].[K+] [potassium ions, potassium chloride] | significantly stronger ability | – |
| [Cl-].[Na+] [sodium ions, sodium chloride] | relatively weak ability | – |
